The subject of experiment [1] is Amaranth pigweed (PW). Kind of experiment: Pre-emergence herbicide test. Particulars: 336 h, 8 lb/acre, two weeks after treatment. It counts as in vivo, Amaranthus retroflexus. In a few lines: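 Pigweed was surface-seeded in potted soil one day before spraying at 8 lbs compound per acre, or 4 lbs/acre, in 38 gallons per acre. Pots were kept in the greenhouse with sub-irrigation only; injury or control was rated visually two weeks after treatment.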

Experiment [2] concerns Cotton (CT). As to the kind of experiment: Pre-emergence herbicide test. It counts as in vivo, Gossypium hirsutum var. DPL smooth leaf. As to conditions: Gossypium hirsutum, 336 h, 8 lb/acre, two weeks after treatment. In a few lines:
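Crop and weed species seeded one day before treatment, then sprayed pre-emergence at 8 lbs actual compound per acre (also 4 lbs/acre formulations) in 38 gallons per acre. Pots kept in greenhouse with sub-irrigation only; injury or control visually rated two weeks after treatment.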

Experiment [3] deals with Turnip (TP). As to the kind of experiment: Pre-emergence herbicide test. It counts as in vivo, Brassica sp. As to conditions: Brassica rapa, pre-emergence, 336 h; 8 lb/acre; two weeks after treatment. In outline: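 Turnip (Brassica sp.) seeds were surface sown in 3' plastic pots of potting soil, covered with a thin layer of screened soil, and sub-irrigated in greenhouse trays. Pots were seeded one day ahead of treatment, sprayed pre-emergence under a hood with a fixed nozzle and moving belt, then kept in the greenhouse.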

Experiment [4] has as its system Johnson grass (JG). Kind of experiment: Post-emergence herbicide test. It counts as in vivo, Sorgum helepense. As to conditions: Sorghum halepense, 336 h, 8 lb/acre, two weeks after treatment. In a few lines: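 Greenhouse pot-grown seedlings sprayed post-emergence at 8 lbs compound per acre (some at 4 lbs/acre) in 38 gallons per acre spray volume. Sub-irrigated thereafter. Injury/control rated visually two weeks after treatment.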

Experiment [5] relates to Bean (BN). Kind of experiment: Post-emergence herbicide test. It counts as in vivo, Phaseolus vulgaris var. Black Valentine. Particulars: Phaseolus vulgaris, post-emergence, 336 h; 8 lb/acre; two weeks after treatment. In a few lines:
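Snapbean (Phaseolus vulgaris var. Black Valentine) was tested post-emergence. Four seeds were sown in 3' plastic pots of potting soil at a depth equal to the seed diameter, then sub-irrigated in greenhouse trays. Planting dates were staggered so plants were sprayed once primary leaves had expanded, with the growing point at the primary leaf nodes.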

Experiment [6] concerns Yellow foxtail grass (YF). As to the kind of experiment: Pre-emergence herbicide test. It counts as in vivo, Setaria glauca. Particulars: Setaria, 336 h, 8 lb/acre, two weeks after treatment. In a few lines: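 Seeds surface-sown in potting soil one day before spraying; compounds applied pre-emergence at 8 or 4 lbs/acre in 38 gallons/acre spray. Pots held in greenhouse with sub-irrigation only. Injury or control rated visually two weeks after treatment.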

The test system of experiment [7] is Barnyard grass (BG). As to the kind of experiment: Post-emergence herbicide test. It counts as in vivo. Particulars: Echinochloa crus-galli, 336 h, 8 lb/acre, two weeks after treatment. In a few lines:
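Greenhouse pot-grown barnyard grass seedlings sprayed post-emergence at 8 lbs active compound per acre (some at 4 lbs/acre) in 38 gallons per acre, then sub-irrigated. Injury or control rated visually two weeks after treatment.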

The test system of experiment [8] is Corn (CN). As to the kind of experiment: Pre-emergence herbicide test. It counts as in vivo. As to conditions: Zea mays, 336 h, 8 lb/acre, two weeks after treatment. In a few lines: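 Four corn seeds per pot, sown at seed-diameter depth one day before spraying, got soil surface treatment at 8 lbs/acre (4 lbs/acre formulations also prepared) in 38 gallons/acre. Pots were greenhouse-held with sub-irrigation only. Injury or control was scored visually two weeks after treatment.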

Experiment [9] concerns Bean (BN). As to the kind of experiment: Pre-emergence herbicide test. It counts as in vivo, Phaseolus vulgaris var. Black Valentine. Particulars: Phaseolus vulgaris, 336 h, 8 lb/acre, two weeks after treatment. In a few lines: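 Black Valentine bean was seeded in potting soil one day before spraying. Compound was applied pre-emergence at 8 lbs/acre (also 4 lbs/acre) in 38 gallons per acre. Plants were sub-irrigated and injury or control was rated visually after two weeks.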

The subject of experiment [10] is Corn (CN). As to the kind of experiment: Post-emergence herbicide test. It counts as in vivo. As to conditions: Zea mays, 336 h, 8 lb/acre, two weeks after treatment. In outline: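 Greenhouse seedlings grown in potting soil and sprayed post-emergence at 8 lbs compound/acre (formulations also made for 4 lbs/acre) in 38 gallons/acre spray volume. Watering by sub-irrigation only. Injury or control rated visually two weeks after treatment.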

The test system of experiment [11] is Turnip (TP). As to the kind of experiment: Post-emergence herbicide test. It counts as in vivo, Brassica sp. Particulars: Brassica rapa, post-emergence, 336 h; 8 lb/acre; two weeks after treatment. In a few lines:
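A greenhouse post-emergence herbicide test on turnip. Seeds were sown on the surface of potting soil in 3' plastic pots, lightly covered with screened soil and watered from below. Planting was timed so seedlings had 1 or 2 true leaves above the cotyledons at spraying, done in a hood with a fixed nozzle. Control or injury was scored by eye after two weeks.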

For experiment [12], the system named is Johnson grass (JG). As to the kind of experiment: Pre-emergence herbicide test. It counts as in vivo, Sorgum helepense. Particulars: Sorghum halepense, 336 h, 8 lb/acre, two weeks after treatment. In a few lines:
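Pots seeded one day before spraying; compound applied pre-emergence at 8 lbs/acre (or 4 lbs/acre) in 38 gallons/acre spray volume. Sub-irrigated in greenhouse; injury/control rated visually two weeks after treatment.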

Experiment [13] deals with Crabgrass (CG). As to the kind of experiment: Post-emergence herbicide test. It counts as in vivo, Digitaria sanquinalis. As to conditions: Digitaria sanguinalis, post-emergence, 336 h; 8 lb/acre; two weeks after treatment. In a few lines:
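Crabgrass (Digitaria sanquinalis) was surface seeded individually in 3' plastic pots of potting soil, covered with screened soil, and watered by sub-irrigation in greenhouse trays. Planting was staggered so seedlings reached the target stage together. Post-emergence sprays were applied in a hood with a removable belt and fixed nozzle, and control was visually rated two weeks after treatment.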

Experiment [14] deals with Barnyard grass (BG). As to the kind of experiment: Pre-emergence herbicide test. It counts as in vivo. As to conditions: Echinochloa crus-galli, 336 h, 8 lb/acre, two weeks after treatment. In a few lines: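 Barnyard grass surface-seeded in potting soil and sprayed pre-emergence one day after seeding, at 8 or 4 lb compound/acre in 38 gal/acre spray volume. Pots kept in greenhouse with sub-irrigation only; injury or control rated visually two weeks after treatment.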

Experiment [15] relates to Cotton (CT). Kind of experiment: Post-emergence herbicide test. It counts as in vivo, Gossypium hirsutum var. DPL smooth leaf. As to conditions: Gossypium hirsutum, post-emergence, 336 h; 8 lb/acre; two weeks after treatment. In a few lines: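 Cotton (Gossypium hirsutum var. DPL smooth leaf) was grown in 3' plastic pots of potting soil, four seeds per pot, planted at a depth equal to the seed diameter and watered by sub-irrigation. At the stage of expanded cotyledons with the first true leaf 1' long, plants were sprayed post-emergence in a hood with a fixed nozzle over a moving belt. Percent control was rated visually two weeks later.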

For experiment [16], the system named is Crabgrass (CG). As to the kind of experiment: Pre-emergence herbicide test. It counts as in vivo, Digitaria sanquinalis. Particulars: Digitaria sanguinalis, pre-emergence, 336 h; 8 lb/acre; two weeks after treatment. In outline:
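Crabgrass (Digitaria sanquinalis) was surface seeded in 3' plastic pots of potting soil, covered with screened soil, and watered by sub-irrigation in greenhouse trays. Pots were seeded one day before spraying in a hood with a moving belt and fixed nozzle. Plants stayed in the greenhouse on sub-irrigation, and pre-emergence control was rated visually two weeks after treatment.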

The test system of experiment [17] is Yellow foxtail grass (YF). As to the kind of experiment: Post-emergence herbicide test. It counts as in vivo, Setaria glauca. As to conditions: Setaria, 336 h, 8 lb/acre, two weeks after treatment. In outline: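 Potted seedlings grown in greenhouse, planting staggered to reach the target stage together, then sprayed post-emergence at 8 lbs actual compound/acre in 38 gallons/acre (4 lbs/acre formulations also prepared). Sub-irrigated afterwards. Injury or control rated visually two weeks after treatment.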

Experiment [18] deals with Amaranth pigweed (PW). Kind of experiment: Post-emergence herbicide test. It counts as in vivo, Amaranthus retroflexus. Particulars: 336 h, 8 lb/acre, two weeks after treatment. In outline:
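Pot-grown pigweed was sprayed post-emergence at the 1–2 true-leaf stage with compound at rates equivalent to 8 lbs per acre (formulations also prepared for 4 lbs/acre) in 38 gallons per acre, using a hood with fixed nozzle. Plants were sub-irrigated in the greenhouse, and injury or control was rated visually two weeks after treatment.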

Consider `C=CCNC(=O)Nc1nnc(SC)s1` [Example 31], for which the pest or weed control at 8966.8 g/ha turned out to be 20% in [1]; 30% in [2]; 30% in [3]; 30% in [4]; 100% in experiment [5]; 70% in [6]. Further, the pest or weed control at 8966.8 g/ha is 20% in [7]; 10% in experiment [8]; 80% in [9]; 20% in experiment [10]; 50% in [11]; 20% in experiment [12]. The pest or weed control at 8966.8 g/ha came out at 30% in experiment [13]; 30% in experiment [14]; 100% in [15]; 70% in [16]; 30% in experiment [17]; 90% in experiment [18].

Regarding `CCSc1nnc(NC(=O)NC)s1` [Example 32], the pest or weed control at 8966.8 g/ha in experiment [1] worked out at 100%; in experiment [2] it was 50%; in [3], 90%; in experiment [4], 90%; in [5], 100%; in experiment [6], 90%. The pest or weed control at 8966.8 g/ha is 100% in experiment [7]; 70% in [8]; 80% in experiment [9]; 60% in experiment [10]; 90% in experiment [11]; 70% in experiment [12]. In addition, the pest or weed control at 8966.8 g/ha in experiment [13] amounted to 100%; in experiment [14] it was 90%; in experiment [15], 100%; in experiment [16], 90%; in experiment [17], 90%; in [18], 100%.

(Values after patent publication US4175081A, “5-Substituted thiadiazole ureas” (priority 1977, dated 1979).)
